Article PMC12305873, “Chlorinated biscoumarins inhibit chikungunya virus replication in cell-based and animal models” (Emerging Microbes & Infections, 2025)

How the values were obtained:
[1] = test system: C57BL/6 mice; experiment: Single-dose acute oral toxicity in mice
[2] = Pharmacokinetic study in rats; conditions: rat
[3] = test system: CHIKV; experiment: Time-of-addition and time-of-removal assay in Vero cells; conditions: 10 µM, MOI 1
[4] = test system: CHIKV; experiment: In vivo anti-CHIKV efficacy, CHIKV-induced arthritis mouse model; conditions: for PMN infiltration in footpad (H&E), day 1 / PMN infiltration in footpad (H&E), days 2 and 3: compounds single oral 250 mg/kg, ribavirin 50 mg/kg BID IP
[5] = test system: Sprague Dawley rats; experiment: ALT and Cr levels in rat plasma samples of the PK study; conditions: single oral 250 mg/kg, plasma at 24, 48, 72 h
[6] = Pharmacokinetic study in mice
[7] = Cytotoxicity by MTS assay in HEK 293 cells; conditions: human
[8] = test system: dengue virus NS5 methyltransferase (MTase); set-up: method as in Loeanurit et al., under review; conditions: targeting the SAM binding site; ref Loeanurit et al., under review; cited from earlier work
[9] = target: CHIKV nsP1 (Chikungunya virus, UniProt Q8JUX6); experiment: MTase-Glo methyltransferase assay; conditions: At 50 µM (method: 100 µM), purified CHIKV nsP1
[10] = test system: CHIKV; experiment: CHIKV plaque assay in HEK 293 cells; conditions: Chikungunya virus, HEK293, read-out: EC50, CHIKV inhibition
[11] = test system: CHIKV; experiment: CHIKV plaque assay in Vero cells; conditions: Chikungunya virus, read-out: EC50, CHIKV inhibition
[12] = test system: CHIKV replicon; experiment: CHIKV replicon inhibition assay (Renilla luciferase) in BHK-21 cells; conditions: Chikungunya virus, BHK-21, 24 h, read-out: EC50, CHIKV replicon inhibition (printed IC50 in Figure 2g,h and b75)
[13] = Cytotoxicity assay alongside the replicon assay; conditions: hamster
[14] = test system: CHIKV; experiment: Cell-based anti-attachment assay in Vero cells; conditions: 10 µM
[15] = test system: C57BL/6 mice; experiment: Multiple-dose toxicity in mice; conditions: compound 3 250 mg/kg oral BID 3 days; ribavirin 50 mg/kg BID I.P.
[16] = single oral dose 250 or 500 mg/kg
[17] = Sprague Dawley, in vivo, po, 250 mg/kg
[18] = oral 250 mg/kg, mean ± SD, 250 mg/kg
[19] = C57BL/6, mouse, in vivo, po, 250 mg/kg
[20] = mice, oral 250 mg/kg, mean ± SD

Sequence of CHIKV nsP1 (Q8JUX6 1-535): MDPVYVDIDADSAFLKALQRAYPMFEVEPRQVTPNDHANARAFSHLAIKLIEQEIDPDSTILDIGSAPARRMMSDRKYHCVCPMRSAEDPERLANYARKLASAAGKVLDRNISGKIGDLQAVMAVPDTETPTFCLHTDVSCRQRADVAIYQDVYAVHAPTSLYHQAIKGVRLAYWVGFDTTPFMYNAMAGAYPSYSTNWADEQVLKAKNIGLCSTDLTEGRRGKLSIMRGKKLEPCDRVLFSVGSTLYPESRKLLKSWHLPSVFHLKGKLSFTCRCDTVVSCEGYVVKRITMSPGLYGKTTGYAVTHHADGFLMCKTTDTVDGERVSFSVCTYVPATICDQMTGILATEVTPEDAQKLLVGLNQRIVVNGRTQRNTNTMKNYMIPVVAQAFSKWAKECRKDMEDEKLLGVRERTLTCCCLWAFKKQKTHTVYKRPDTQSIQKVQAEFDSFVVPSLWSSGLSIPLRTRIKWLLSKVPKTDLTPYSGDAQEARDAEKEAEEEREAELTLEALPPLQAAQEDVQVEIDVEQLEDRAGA

Compound: O=c1oc2ccccc2c(O)c1C(c1ccc(Cl)cc1)c1c(O)c2ccccc2oc1=O [compound 4, 3,3′-((4-chlorophenyl)methylene)bis(4-hydroxy-2H-chromen-2-one)]
- Activity scores [1, 16]: no significant difference in activity scores
- Kidney histology [1, 16]: remained within normal limits
- Liver (ALT) and kidney (creatinine) biomarkers ([1]; single oral dose 250 or 500 mg/kg, days 1, 3, 7): remained within normal limits
- Survival and clinical signs over 7 days ([1]; single oral dose 250 or 500 mg/kg, mice): All animals survived
- Liver histology ([1]; single oral dose, day 1, also seen in vehicle-treated animals): Mild, transient hepatocellular vacuolization
- Tolerability of a single oral dose ([1]; up to 500 mg/kg, mice): well tolerated
- AUC [2, 17]: 4180 µg·h/mL
- AUC(0-inf) [2, 17]: 4440 ± 1730 µg·h/mL
- AUC(0-t) [2, 17]: 4180 ± 1640 µg·h/mL
- CL/F [2, 17]: 1.08 mL/min/kg
- MRT inf [2, 17]: 26.77 ± 0.127 h
- MRT last [2, 17]: 22.2 ± 0.801 h
- Cmax ([2]; Sprague Dawley, in vivo, po, 250 mg/kg, Cmax, oral 250 mg/kg, mean ± SD): 133 ± 40.8 µg/mL
- half-life ([2]; Sprague Dawley, in vivo, po, 250 mg/kg, HL (half-life), oral 250 mg/kg, mean ± SD): 16.6 h
- Cmax ([2]; Sprague Dawley, in vivo, po, 250 mg/kg, Peak plasma concentration (Cmax), rats, oral 250 mg/kg): 133 µg/mL
- Tmax ([2]; Sprague Dawley, in vivo, po, 250 mg/kg, Tmax, oral 250 mg/kg, mean ± SD): 10.7 h
- AUC_% Extrap_obs ([2]; oral 250 mg/kg, mean ± SD): 6.119 ± 0.999%
- Vz_F_obs ([2]; oral 250 mg/kg, mean ± SD): 1.596 ± 0.946 L/kg
- HL (half-life) [2, 18]: 16.649 ± 1.601 h
- Tmax [2, 18]: 10.667 ± 2.309 h
- Time-of-addition time-points significantly different from DMSO control [3]: 1–6 hpi
- Viral titres in time-of-addition (TOA) assay [3]: significantly reduced viral titres when added up to 9 hpi
- PMN infiltration in footpad (H&E), day 1 [4]: reduced PMN infiltration on day 1
- PMN infiltration in footpad (H&E), days 2 and 3 [4]: PMN infiltration persisting at moderate levels
- CHIKV titres in footpad tissues, plaque assay, day 2 post-infection ([4]; single oral 250 mg/kg): significantly reduced CHIKV titres in footpad tissues
- Systemic viremia (plasma CHIKV titres, plaque assay) ([4]; single oral 250 mg/kg): no marked reduction in systemic viremia
- Foot swelling and activity vs vehicle group ([4]; single oral 250 mg/kg at 24 h after infection, transient, not significantly different from vehicle): moderate improvement in foot swelling and activity
- ALT and Cr levels [5]: within normal limits
- AUC [6, 19]: 2750 µg·h/mL
- AUC(0-inf) [6, 19]: 2750 ± 927 µg·h/mL
- AUC(0-t) [6, 19]: 2750 ± 927 µg·h/mL
- CL/F [6, 19]: 1.67 mL/min/kg
- MRT inf [6, 19]: 10.1 ± 0.366 h
- MRT last [6, 19]: 10.1 ± 0.356 h
- Tmax [6, 19]: 6 h
- Cmax ([6]; C57BL/6, mouse, in vivo, po, 250 mg/kg, Cmax, mice, oral 250 mg/kg, mean ± SD): 197 ± 77 µg/mL
- half-life ([6]; C57BL/6, mouse, in vivo, po, 250 mg/kg, HL (half-life), mice, oral 250 mg/kg, mean ± SD): 3.42 h
- Cmax ([6]; C57BL/6, mouse, in vivo, po, 250 mg/kg, Peak plasma concentration (Cmax), mice, oral 250 mg/kg): 197 µg/mL
- Time within which plasma concentration fell below EC90 and EC50 ([6]; mice, oral 250 mg/kg): 24 to 48 h
- AUC_% Extrap_obs [6, 20]: 0.018 ± 0.014%
- Vz_F_obs [6, 20]: 0.494 ± 0.200 L/kg
- HL (half-life) ([6]; mice, oral 250 mg/kg, mean ± SD, 250 mg/kg): 3.422 ± 0.419 h
- CC50 at 2 days [7]: 44.4 ± 1.48 µM
- Inhibition of dengue virus NS5 methyltransferase [8]: inhibitors of the dengue virus NS5 methyltransferase (MTase)
- nsP1 methyltransferase enzymatic activity vs DMSO control [9]: significantly inhibited enzymatic activity
- EC50 [10]: 4.65 ± 0.56 µM
- EC50 [11]: 2.9 ± 0.25 µM
- EC50 [12]: 5.04 ± 0.23 µM
- CC50 [13]: 79.87 ± 0.4 µM
- CHIKV inhibition, post-incubation or throughout ([14]; Vero, MOI 0.1, 24 hpi): robust antiviral activity was observed
- CHIKV inhibition, pre-treatment, pre-incubation or co-incubation ([14]; Vero, MOI 0.1, 24 hpi): Neither compound exhibited significant inhibition
- Effect of compound pre-treatment on viral replication ([14]; cells treated 1 h before virus): enhanced the viral replication

Compound: NC(=O)c1ncn([C@@H]2O[C@H](CO)[C@@H](O)[C@H]2O)n1 [ribavirin, Ribavirin, reference compound]
- Activity scores / behaviour [15]: maintained normal behaviour and activity
- Creatinine [15]: remained within normal limits
- Histopathology of liver tissues [15]: No pathological abnormalities were observed
- Histopathology of renal tissues [15]: No pathological abnormalities were observed
- PMN infiltration in footpad (H&E), day 1 [4]: reduced PMN infiltration on day 1
- PMN infiltration in footpad (H&E), days 2 and 3 [4]: PMN infiltration persisting at moderate levels
